# Several values for one entry are separate records, joined by “and”; a condition that tells them apart may be missing. Equal values may be shown once. Entries after “also recorded” stand apart in the source; their conditions may differ. Read-outs that look alike come from different tables or passages of the source.
# Experiments:
# NEU1, NEU2, NEU3, NEU4 [1] = experiment: Isoenzyme specificity/selectivity from 4MU-NANA IC50 across the four human neuraminidases; format: biochemical; conditions: 4MU-NANA IC50 compared between isoenzymes or with DANA
# NEU3 [2] = target: T1, NEU3 (Homo sapiens, UniProt Q9UQ49); experiment: IC50 inhibition assay using 4MU-NANA as the substrate, NEU3; format: biochemical; parameters: MBP (N); made in house; host or cells: E. coli
# T1 sequence (Q9UQ49 1-428): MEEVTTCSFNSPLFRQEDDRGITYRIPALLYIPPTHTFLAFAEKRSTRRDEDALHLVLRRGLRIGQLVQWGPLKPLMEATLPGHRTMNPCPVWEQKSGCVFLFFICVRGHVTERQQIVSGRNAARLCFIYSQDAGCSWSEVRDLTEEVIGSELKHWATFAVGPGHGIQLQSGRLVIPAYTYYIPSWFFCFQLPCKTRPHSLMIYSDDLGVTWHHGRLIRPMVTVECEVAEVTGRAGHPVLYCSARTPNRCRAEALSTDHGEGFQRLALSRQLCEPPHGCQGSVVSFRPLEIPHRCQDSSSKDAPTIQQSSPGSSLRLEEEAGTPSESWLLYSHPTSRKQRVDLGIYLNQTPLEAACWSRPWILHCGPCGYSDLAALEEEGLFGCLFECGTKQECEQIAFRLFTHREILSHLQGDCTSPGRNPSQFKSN
# NEU4 = target: T2, NEU4 (Homo sapiens, UniProt Q8WWR8); experiment: IC50 inhibition assay using 4MU-NANA as the substrate, NEU4; format: biochemical; parameters: GST; made in house; host or cells: E. coli; conditions: 4MU-NANA as the substrate; read-out: IC50 NEU4
# T2 sequence (Q8WWR8 1-484): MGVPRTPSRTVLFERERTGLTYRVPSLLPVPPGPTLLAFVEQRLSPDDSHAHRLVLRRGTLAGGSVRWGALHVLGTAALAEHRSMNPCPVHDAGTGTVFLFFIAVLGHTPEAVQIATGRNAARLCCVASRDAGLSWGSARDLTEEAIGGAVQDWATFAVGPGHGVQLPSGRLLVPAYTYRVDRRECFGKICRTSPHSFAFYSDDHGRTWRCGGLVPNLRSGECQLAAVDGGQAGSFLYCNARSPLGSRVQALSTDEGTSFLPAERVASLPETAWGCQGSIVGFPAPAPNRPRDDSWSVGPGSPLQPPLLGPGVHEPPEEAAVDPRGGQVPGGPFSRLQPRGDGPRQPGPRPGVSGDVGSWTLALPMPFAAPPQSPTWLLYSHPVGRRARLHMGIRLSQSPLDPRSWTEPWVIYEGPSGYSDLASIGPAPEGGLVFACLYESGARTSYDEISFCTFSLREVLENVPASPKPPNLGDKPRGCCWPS
# NEU1 [3] = target: T3, NEU1 (Homo sapiens, UniProt Q99519); experiment: IC50 inhibition assay using 4MU-NANA as the substrate, NEU1; format: biochemical
# T3 construct: made in house; host or cells: HEK293 (lentiviral transduction), crude lysate
# Method: Two weeks after transduction cells were harvested and a crude lysate showing ˜200 nmol/h mg of sialidase activity used in experiments.
# Assays were performed with duplicates for each point and IC50 was obtained by plotting the data with Graphpad™ Prism 5.0.
# NEU1, NEU2, NEU3, NEU4 [4] = experiment: Isoenzyme specificity/selectivity from 4MU-NANA IC50 across the four human neuraminidases; format: biochemical; conditions: for Target: isoenzyme(s) the compound is specific for, dual (bispecific) when ratio of IC50 is about 3 or less
# NEU3 [5] = target: T1, NEU3; experiment: Inhibition of GM3 cleavage, NEU3
# [6] = test system: atherosclerotic lesions in ApoE KO mice; experiment: Atherosclerotic lesion size in aortic root of ApoE KO mice (Red Oil O); conditions: ApoE KO female mice, ip
# NEU3 [7] = target: T1, NEU3; experiment: Ki determination (4MU-NANA), NEU3
# Neu1 [8] = target: T4, Neu1 (Mus musculus, UniProt O35657); experiment: Histochemical assay of neuraminidase activity (X-Neu5Ac) in kidney tissues of treated mice; format: in vivo; conditions: ip 30 mg/kg, X-Neu5Ac staining
# T4 construct: from tissue; host or cells: mouse kidney sections (C57Bl6 / ApoE KO mice treated in vivo)
# Method: Five μm-thick sections were cut from OCT-embedded frozen mouse tissues using a CM3050 S Microtome (Leica). The slices were incubated with 0.2 mM sialidase substrate […]-4-chloroindol-3-yl 5-acetamido-3,5-dideoxy-α-d-glycero-d-galacto-2-nonulopyranosidonic acid (X-Neu5Ac, Sigma) and Fast Red™ Violet LB Salt (Sigma), at pH 4.7 for 1 h. Then the sections were rinsed in PBS, mounted on glass slides using Vectashield™ mounting medium and scanned using Axioscan™ slide scanner (Zeiss).
# The two injections were performed 24 hours apart. 17 hours after the second injection, the kidney and spleen were collected. Untreated C57B16 mice (n=2), Neu1 KO (n=2) and Neu3/4 DKO mice (n=2) were used as positive and negative controls for these compounds.
# Histochemical Staining of Sialidase Activity in Tissues: Sialidase activity in was analysed in situ using the histochemical substrate X-Neu5Ac: 5-bromo-4-chloroindol-3-yl-alpha-D-N-acetylneuraminic acid and Fast Red Violet B. X-Neu5Ac is hydrolyzed by neuraminidases to release a halogenated product undergoing rapid aerobic oxidation to form the dark blue dye. Conjugate with Fast Red Violet B was used for fluorescence detection.
# [9] = 4MU-NANA as the substrate, read-out: IC50 NEU3
# [10] = 4MU-NANA as the substrate, read-out: IC50 NEU1
Compound,IC50 (NEU3 [2]; [9]),IC50 (NEU4) [µM],IC50 (NEU1 [3]; [10]) [µM],"Target (NEU1, NEU2, NEU3, NEU4 [4])",further results
CC(=O)N[C@H]1[C@H]([C@H](O)[C@H](O)Cn2cc(-c3ccc(C(=O)O)cc3)nn2)OC(C(=O)O)=C[C@@H]1N [compound 15],> 500 µM,> 500,> 500,,"relative potency (NEU1, NEU2, NEU3, NEU4 [1]): decreased potency"
CC(=O)N[C@H]1[C@H]([C@H](O)[C@H](O)Cn2cc(-c3ccc(C(=O)O)cc3)nn2)OC(C(=O)O)=C[C@@H]1N=[N+]=[N-] [compound 13],20 ± 6 µM,400 ± 70,> 500,NEU3,"relative potency (NEU1, NEU2, NEU3, NEU4 [1]): decreased potency; Selectivity (NEU1, NEU2, NEU3, NEU4 [4]; from 4MU-NANA IC50, for the isoenzyme(s) in column Target): 20"
CC(=O)N[C@@H]1C(NC(=N)N)C=C(C(=O)O)OC1C(O)C(O)Cn1cc(-c2ccc(-c3ccccc3)cc2)nn1 (some centres unmarked) [8b],< 1 µM and 0.58 µM,,> 500,,"IC50 (NEU3 [5]): 3.8 µM; size of atherosclerotic lesions / fatty streaks in the aortic root ([6]; 4 weeks): Reduced size of fatty streaks; also recorded: significantly reduced the size of atherosclerotic lesions; IC50 (NEU3 [2]; target isoenzyme NEU3, 4MU-NANA substrate, read-out: IC50 [μM] NEU3): 0.6 µM; changes associated with toxicity (bleeding, leukocyte infiltration, cytoplasmic vacuolisation) (4 weeks ip treatment): did not see specific changes known to be associated with toxicity; changes in the mice weight or behaviour (4 weeks ip treatment): did not result in any changes in the mice weight or behaviour; Ki (NEU3 [7]; Ki NEU3, 4MU-NANA): 0.28 ± 0.04 µM; Ki (NEU3 [7]; NEU3 Ki [μM], 4MU-NANA substrate): 0.36 ± 0.04 µM"
"CCCCC(=O)NCC(O)C(O)C1OC(C(=O)O)=CC(O)[C@H]1NC(C)=O (some centres unmarked) [compound 50, C9-BA-DANA]",,220 ± 50,,,"Neu1 activity in tissues (Neu1 [8]): blocks Neu1 activity in kidney tissues; also recorded: almost complete inhibition of NEU1 in the tissues; atherosclerotic lesion size, % of those in untreated ApoE mice ([6]; 2-week treatment, sacrificed at 16 weeks): 25%; size of atherosclerotic lesions / fatty streaks in the aortic root ([6]; 2 weeks): Reduced size of fatty streaks; also recorded: significantly reduced the size of atherosclerotic lesions; size of atherosclerotic lesions / fatty streaks in the aortic root ([6]; 4 weeks): Reduced size of fatty streaks; also recorded: significantly reduced the size of atherosclerotic lesions; changes in the mice weight or behaviour (2-week ip treatment): did not result in any changes in the mice weight or behaviour; changes associated with toxicity (bleeding, leukocyte infiltration, cytoplasmic vacuolisation) (4 weeks ip treatment): did not see specific changes known to be associated with toxicity; changes in the mice weight or behaviour (4 weeks ip treatment): did not result in any changes in the mice weight or behaviour"
CCCCC(=O)N[C@@H]1C(O)C=C(C(=O)O)OC1C(O)C(O)CO (some centres unmarked) [compound 31],,110 ± 20,0.99 ± 0.07,NEU1,"size of atherosclerotic lesions / fatty streaks in the aortic root ([6]; 4 weeks): Reduced size of fatty streaks; also recorded: significantly reduced the size of atherosclerotic lesions; IC50 (NEU1 [3]; target isoenzyme NEU1, 4MU-NANA substrate, read-out: IC50 [μM] NEU1): 0.99 µM; changes associated with toxicity (bleeding, leukocyte infiltration, cytoplasmic vacuolisation) (4 weeks ip treatment): did not see specific changes known to be associated with toxicity; changes in the mice weight or behaviour (4 weeks ip treatment): did not result in any changes in the mice weight or behaviour"
CC(=O)N[C@H]1[C@H]([C@H](O)[C@H](O)Cn2cc(-c3ccc(C(=O)O)cc3)nn2)OC(C(=O)O)=C[C@@H]1NC(=O)NCCC(=O)O [compound 18],> 500 µM,66 ± 16,> 500,NEU4,
"CC(C)C(=O)N[C@H]1[C@H]([C@H](O)[C@H](O)CO)OC(C(=O)O)=C[C@@H]1O [compound 34, 5-isobutyramido-2,6-anhydro-3,5-dideoxy-D-glycero-D-galacto-non-2-enonic acid]",> 500 µM,71 ± 17,5.3 ± 0.8,NEU1,
CC(=O)N[C@H]1[C@H]([C@H](O)[C@H](O)Cn2cc(-c3ccc(C(F)(F)F)cc3)nn2)OC(C(=O)O)=C[C@@H]1O [7g],3.3 ± 0.5 µM,5 ± 0.9,140 ± 30,NEU3/ NEU4,
CC(=O)N[C@@H]1C(O)C=C(C(=O)O)OC1C(O)C(O)Cn1cc(-c2ccc(NC(=O)c3ccccc3)cc2)nn1 (some centres unmarked) [compound 27],2.9 ± 0.2 µM,3.7 ± 0.4,190 ± 70,NEU3/ NEU4,
CC(=O)N[C@@H]1C(O)C=C(C(=O)O)OC1C(O)C(O)Cn1cc(CNC(=O)c2ccccc2)nn1 (some centres unmarked) [compound 26],15 ± 1 µM,1.1 ± 0.2,> 500,NEU4,
O=C(Cn1cc(-c2ccc(C(F)(F)F)cc2)nn1)N[C@@H]1C(O)C=C(C(=O)O)OC1C(O)C(O)CO (some centres unmarked) [compound 41],> 500 µM,300 ± 60,> 500,NEU2,
CC(=O)N[C@@H]1C(NC(=N)N)C=C(C(=O)O)OC1C(O)C(O)Cn1cc(-c2ccc(C(=O)O)cc2)nn1 (some centres unmarked) [8a],0.61 ± 0.1 µM,24 ± 2,> 500,NEU3,
"CCCCC(=O)NCC(O)C(O)C1OC(C(=O)O)=CC(O)[C@H]1NC(=O)CCCC (stereo partly drawn) [compound 57, 5-Pentanamido-9-pentanamido-2,6-anhydro-3,5-dideoxy-D-glycero-D-galacto-non-2-enonic acid]",> 500 µM,> 500,1.5 ± 0.2,NEU1,
"CCCCC(=O)NC[C@@H](O)[C@@H](O)[C@@H]1OC(C(=O)O)=C[C@H](O)[C@H]1NC(=O)CC [compound 65, 5-Propionamido-9-pentanamido-2,6-anhydro-3,5-dideoxy-D-glycero-D-galacto-non-2-enonic acid]",> 500 µM,190 ± 70,1.6 ± 0.2,NEU1,
"CCC(=O)N[C@H]1[C@H]([C@H](O)[C@H](O)CO)OC(C(=O)O)=C[C@@H]1O [compound 29, 5-Propionamido-2,6-anhydro-3,5-dideoxy-D-glycero-D-galacto-non-2-enonic acid]",60 ± 7 µM,87 ± 18,18 ± 1,NEU1,
O=C(Cn1cc(-c2ccc(F)cc2)nn1)N[C@@H]1C(O)C=C(C(=O)O)OC1C(O)C(O)CO (some centres unmarked) [compound 45],240 ± 40 µM,100 ± 20,> 500,NEU2,
CC(=O)N[C@@H]1C(O)C=C(C(=O)O)OC1C(O)C(O)Cn1cc(-c2ccc(C(=O)O)cc2)nn1 (some centres unmarked) [7h],1.1 ± 0.1 µM,3 ± 0.3,240 ± 90,NEU3/ NEU4,
CC(=O)Nc1ccc(-c2cn(C[C@@H](O)[C@@H](O)[C@@H]3OC(C(=O)O)=C[C@H](O)[C@H]3NC(C)=O)nn2)cc1 [7b],5.5 ± 0.5 µM,11 ± 1,59 ± 5,NEU3/ NEU4,

# Reference: patent publication US11773129B2, “Methods of preventing or treating atherosclerosis with inhibitors of specific isoenzymes of human neuraminidase” (THE GOVERNORS OF THE UNIVERSITY OF ALBERTA, priority 2017, dated 2023)
